{"source": "patent US12268702B2", "about": "“Antitumor pharmaceutical composition comprising azvudine and chemotherapeutic agent” (HENAN GENUINE BIOTECH CO., LTD., priority 2023, dated 2025)", "test_system": "A2058 xenograft tumor model", "assay": "Human melanoma A2058 cell subcutaneous xenograft tumor model", "format": "in vivo", "conditions": "azvudine 1 mg/kg, dacarbazine 60 mg/kg, combination 1 + 60 mg/kg; for Tumor volume (mm^3) on the 14th day: 14th day of administration", "description": "Human melanoma cells A2058 (Cat. No.: CRL-11147) were cultured in vitro as a monolayer in DMEM medium containing 10% fetal bovine serum, 100 U/mL penicillin and 100 μg/mL streptomycin, in a 37° C. and 5% CO2 incubator. The cells were routinely digested with trypsin-EDTA and passaged twice a week. When the cell saturation reached 80%-90% and the cell number achieved the requirement, the cells were collected, counted and inoculated.\n0.2 mL (5×10^6) of A2058 cells were added with Matrigel, and the mixture was subcutaneously inoculated on the right back of each mouse. The grouping administration was started when the average tumor volume reached about 136 mm^3.", "key": {"[1]": {"conditions": "based on tumor volume, 14th day"}}}
{"molecule": "CN(C)/N=N/c1[nH]cnc1C(N)=O", "note": "[Dacarbazine, dacarbazine]", "values": [{"measurement": "Tumor volume (mm^3) on the 14th day", "result": "1,255 ± 186 mm^3"}, {"measurement": "Tumor volume (mm^3) on the 14th day", "setting": "listed as dacarbazine", "result": 1255, "unit": "mm^3"}, {"measurement": "T/C (%)", "setting": "[1]", "result": 44.77, "unit": "%"}, {"measurement": "TGI (%)", "setting": "[1]", "result": 56.74, "unit": "%"}]}
